Test results: ChEMBL document CHEMBL1201862, “PubChem BioAssay data set” (2004)
Blank lines part the entries; values can stand above or below the compound they belong to. Calls of active or inactive are those of the source.

What was measured:
[1] = cytotoxicity in OVCAR8 ovarian cancer cells, dose response, PAX8 project, cell-based, plate reader, dry powder samples (AID 743197); type: functional; settings: OVCAR-8
[2] = IGROV1 ovarian cancer cell cytotoxicity, dose response, PAX8 inhibitor project, plate reader, dry powder samples (AID 743043); type: functional, cell-based; settings: IGROV-1
Paired box protein Pax-8 = Paired box protein Pax-8 (Homo sapiens, UniProt Q06710); test: inhibitors of PAX8-driven TPO luciferase reporter, dose response, RMG-I cells, cherry-pick (AID 687027); type: functional, cell-based;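 note: luciferase reporter driven by Pax8 target thyroperoxidase promoter measured by SteadyGlo luminescence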
[3] = NIH:OVCAR-3 ovarian cancer cell cytotoxicity, dose response, PAX8 inhibitor project, plate reader, dry powder samples (AID 743044); type: functional, cell-based
[4] = IOSE-T80 ovarian epithelial cell cytotoxicity, dose response, cytotoxicity control for PAX8 inhibitor project, plate reader, dry powder samples (AID 743045); type: functional, cell-based
[5] = non-specific cell cytotoxicity, dose response, cytotoxicity control for PAX8 inhibitor project, plate reader, dry powder samples (AID 743021); type: functional, cell-based
Transthyretin = Transthyretin (Homo sapiens, UniProt P02766); test: Luminescence-based cell-based high throughput dose response assay to identify activators of Transthyretin (TTR) transcription.; type: functional
[6] = biological target: 1-phosphatidylinositol 4,5-bisphosphate phosphodiesterase beta-3 (Homo sapiens, UniProt Q01970); test: Fluorescence-based biochemical high throughput dose response assay to identify inhibitors of phospholipase C isozymes (PLC-B3).
Leucine aminopeptidase = biological target: T1, Leucine aminopeptidase (Plasmodium falciparum 3D7, UniProt Q8IL11); test: P. falciparum M17LAP inhibitors, primary screen, biochemical, fluorogenic H-Leu-NHMec substrate, 1536-well (AID 1619); type: functional
T1 sequence (Q8IL11 whole entry): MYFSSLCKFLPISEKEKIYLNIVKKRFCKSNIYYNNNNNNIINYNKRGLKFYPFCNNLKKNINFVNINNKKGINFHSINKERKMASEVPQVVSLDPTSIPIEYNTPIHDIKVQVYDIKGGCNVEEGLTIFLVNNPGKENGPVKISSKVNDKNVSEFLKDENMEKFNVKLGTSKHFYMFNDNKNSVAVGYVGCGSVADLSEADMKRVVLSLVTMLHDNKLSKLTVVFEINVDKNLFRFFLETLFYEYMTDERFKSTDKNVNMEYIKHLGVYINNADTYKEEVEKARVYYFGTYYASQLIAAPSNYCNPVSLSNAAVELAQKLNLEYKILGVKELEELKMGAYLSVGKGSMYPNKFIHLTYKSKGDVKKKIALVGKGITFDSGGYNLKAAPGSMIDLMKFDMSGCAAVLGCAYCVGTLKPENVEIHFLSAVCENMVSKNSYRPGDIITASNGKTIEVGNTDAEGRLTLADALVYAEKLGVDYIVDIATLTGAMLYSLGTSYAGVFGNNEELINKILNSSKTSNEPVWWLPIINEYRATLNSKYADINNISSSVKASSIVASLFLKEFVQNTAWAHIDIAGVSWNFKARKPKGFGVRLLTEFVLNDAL

[7] = biological target: 1-phosphatidylinositol 4,5-bisphosphate phosphodiesterase gamma-1 (Homo sapiens, UniProt P19174); test: Counterscreen for inhibitors of phospholipase C isozymes (PLC-B3): Fluorescence-based biochemical high throughput dose response assay to identify inhibitors of phospholipase C isozymes (PLC-gamma1).
Genome polyprotein = Genome polyprotein (dengue virus type 2, UniProt P29990); test: Dengue-2 NS5 methyltransferase inhibitors, primary screen, biochemical, confirmation dose response (AID 588689); type: functional
Vero [8] = test: Vero cell cytotoxicity, cytotoxicity control for flavivirus capping enzyme inhibitors (AID 588742); type: functional; settings: Chlorocebus sabaeus
[9] = A375 melanoma cell cytotoxicity, dose response, counter-screen for MITF inhibitor project, CellTiter-Glo luminescence, dry powder, set 2 (AID 624489); type: functional, cell-based; settings: A-375;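 note: actives are compounds lowering A375 viability meaning general cytotoxicity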
[10] = A375 melanoma cell viability loss, dose response, counter-screen for MITF inhibitor project, CellTiter-Glo luminescence, dry powder, set 4 (AID 624364); type: functional, cell-based; settings: A-375;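 note: A375 melanoma cells are MITF independent so this is a counter screen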
[11] = Luminescence Cell-Based Dose Retest to Confirm Inhibitors of Cancer Stem Cells. [Related pubchem assays (depositor defined):AID2717, AID2721]; type: functional; settings: Homo sapiens
[12] = off-target signal loss in HeLa-CEM21 co-culture – HeLa F-luc CTL cells, cherry-picked, counter-screen for HIV-1 Env fusion inhibitor project, dose response (AID 652040); type: functional, cell-based;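 note: potency for signal decrease marking cytotoxic or nonspecific inhibition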
[13] = ZM109 Env clade C HIV-1 fusion inhibitors, dose response, HeLa effector, CEM target cells, luciferase, cherry-pick (AID 652058); type: functional, cell-based
[14] = CEM21 lymphoblast cell cytotoxicity, dose response, cytotoxicity control for viral fusion inhibitor project, CellTiter-Glo luminescence, cherry-picked (AID 652042); type: functional, cell-based;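 note: potency for signal decrease meaning cytotoxicity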
[15] = inhibitors of HIV Env-driven cell fusion, dose response, cherry-pick (AID 652057); type: functional, cell-based
[16] = inhibitors of clade B AD8 Env fusion, dose response, cell-based, cherry-pick (AID 652062); type: functional;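 note: luciferase signal from cell-cell fusion driven by HIV-1 clade B AD8 Env; potency is for inhibitors of fusion seen as a drop in luminescence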
Vero [17] = test: Vero cell toxicity, dose response, cytotoxicity control, plate reader, cherry-pick samples (AID 687020); type: functional, cell-based; settings: Chlorocebus sabaeus
[18] = HEp-2 cell cytotoxicity, dose response, cytotoxicity control for RSV inhibitor project, HTS (AID 2410); type: functional; settings: human respiratory syncytial virus
[19] = ADAM10 protease inhibitors, dose response, selectivity assay for ADAM17 exosite inhibitor project, biochemical, FRET peptide substrate, recombinant human ADAM10 (AID 743259);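 note: ADAM10 enzyme cleaving a FRET peptide substrate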
[20] = biological target: Disintegrin and metalloproteinase domain-containing protein 17 (Homo sapiens, UniProt P78536); test: exosite inhibitors of ADAM17, dose response, biochemical (AID 743260)
Sequence of Disintegrin and metalloproteinase domain-containing protein 17 (P78536 whole entry, the tested form may be a part): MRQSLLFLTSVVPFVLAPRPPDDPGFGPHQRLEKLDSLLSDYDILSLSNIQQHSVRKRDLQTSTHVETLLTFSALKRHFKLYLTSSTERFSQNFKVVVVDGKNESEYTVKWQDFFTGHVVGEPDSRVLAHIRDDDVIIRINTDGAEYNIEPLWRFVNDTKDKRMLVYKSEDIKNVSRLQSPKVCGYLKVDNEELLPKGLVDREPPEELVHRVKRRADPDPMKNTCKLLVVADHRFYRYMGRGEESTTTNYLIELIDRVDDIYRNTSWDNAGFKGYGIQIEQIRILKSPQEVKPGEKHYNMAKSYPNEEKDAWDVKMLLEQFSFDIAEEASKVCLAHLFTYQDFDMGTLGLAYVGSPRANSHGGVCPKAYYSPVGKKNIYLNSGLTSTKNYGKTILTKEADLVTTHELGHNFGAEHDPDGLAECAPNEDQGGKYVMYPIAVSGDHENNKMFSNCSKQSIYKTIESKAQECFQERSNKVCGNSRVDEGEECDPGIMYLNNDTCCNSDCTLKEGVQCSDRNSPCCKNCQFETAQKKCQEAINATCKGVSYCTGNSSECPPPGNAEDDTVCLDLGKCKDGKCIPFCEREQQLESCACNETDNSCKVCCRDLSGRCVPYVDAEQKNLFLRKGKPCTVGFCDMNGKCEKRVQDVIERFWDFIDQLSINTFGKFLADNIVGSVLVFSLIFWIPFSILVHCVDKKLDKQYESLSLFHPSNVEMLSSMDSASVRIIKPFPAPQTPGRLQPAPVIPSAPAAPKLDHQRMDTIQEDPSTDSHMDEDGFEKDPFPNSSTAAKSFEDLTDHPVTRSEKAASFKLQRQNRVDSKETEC

Sequence of Paired box protein Pax-8 (Q06710 whole entry): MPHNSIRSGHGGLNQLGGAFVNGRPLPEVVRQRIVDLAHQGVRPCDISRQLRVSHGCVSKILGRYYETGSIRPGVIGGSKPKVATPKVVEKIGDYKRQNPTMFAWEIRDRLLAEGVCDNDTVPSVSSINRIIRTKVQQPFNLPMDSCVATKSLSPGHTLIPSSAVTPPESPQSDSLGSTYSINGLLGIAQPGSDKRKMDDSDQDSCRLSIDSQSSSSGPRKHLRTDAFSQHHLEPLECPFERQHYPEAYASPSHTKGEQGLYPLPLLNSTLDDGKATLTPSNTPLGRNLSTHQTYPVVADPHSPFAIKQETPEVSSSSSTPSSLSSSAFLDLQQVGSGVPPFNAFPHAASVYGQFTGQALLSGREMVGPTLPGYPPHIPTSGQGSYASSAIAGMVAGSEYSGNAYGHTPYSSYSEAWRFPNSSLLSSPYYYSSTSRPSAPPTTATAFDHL
Sequence of 1-phosphatidylinositol 4,5-bisphosphate phosphodiesterase beta-3 (Q01970 whole entry): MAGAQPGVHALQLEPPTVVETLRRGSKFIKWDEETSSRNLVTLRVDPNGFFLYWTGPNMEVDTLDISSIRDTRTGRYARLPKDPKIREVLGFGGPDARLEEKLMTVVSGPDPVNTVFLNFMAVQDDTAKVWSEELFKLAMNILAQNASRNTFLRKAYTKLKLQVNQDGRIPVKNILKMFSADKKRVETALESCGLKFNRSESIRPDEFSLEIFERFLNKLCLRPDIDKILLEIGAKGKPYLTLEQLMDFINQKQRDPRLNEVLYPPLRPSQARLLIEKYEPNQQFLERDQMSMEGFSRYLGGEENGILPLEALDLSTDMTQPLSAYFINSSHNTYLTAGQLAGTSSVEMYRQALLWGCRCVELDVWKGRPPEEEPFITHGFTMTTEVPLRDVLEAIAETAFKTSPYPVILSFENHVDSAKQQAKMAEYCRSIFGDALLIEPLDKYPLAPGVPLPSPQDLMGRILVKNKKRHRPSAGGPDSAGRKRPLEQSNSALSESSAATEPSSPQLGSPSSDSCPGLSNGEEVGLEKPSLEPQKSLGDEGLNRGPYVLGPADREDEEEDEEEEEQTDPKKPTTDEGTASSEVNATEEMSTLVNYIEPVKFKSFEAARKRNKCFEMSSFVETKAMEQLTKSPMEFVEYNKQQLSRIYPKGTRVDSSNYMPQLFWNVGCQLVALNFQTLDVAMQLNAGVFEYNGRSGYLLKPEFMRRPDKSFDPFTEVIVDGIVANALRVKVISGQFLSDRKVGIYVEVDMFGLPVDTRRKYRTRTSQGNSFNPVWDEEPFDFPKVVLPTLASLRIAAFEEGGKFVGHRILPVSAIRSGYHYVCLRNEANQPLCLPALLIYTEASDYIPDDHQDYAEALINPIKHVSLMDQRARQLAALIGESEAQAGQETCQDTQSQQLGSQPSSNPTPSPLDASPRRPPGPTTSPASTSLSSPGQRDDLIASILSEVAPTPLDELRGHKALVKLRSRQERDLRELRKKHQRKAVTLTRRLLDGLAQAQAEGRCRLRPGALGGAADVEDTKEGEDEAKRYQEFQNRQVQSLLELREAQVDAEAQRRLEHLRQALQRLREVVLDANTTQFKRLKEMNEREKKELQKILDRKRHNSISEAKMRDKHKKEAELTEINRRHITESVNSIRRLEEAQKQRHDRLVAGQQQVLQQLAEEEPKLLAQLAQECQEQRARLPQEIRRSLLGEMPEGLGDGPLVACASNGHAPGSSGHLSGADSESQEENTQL
Sequence of 1-phosphatidylinositol 4,5-bisphosphate phosphodiesterase gamma-1 (P19174 whole entry): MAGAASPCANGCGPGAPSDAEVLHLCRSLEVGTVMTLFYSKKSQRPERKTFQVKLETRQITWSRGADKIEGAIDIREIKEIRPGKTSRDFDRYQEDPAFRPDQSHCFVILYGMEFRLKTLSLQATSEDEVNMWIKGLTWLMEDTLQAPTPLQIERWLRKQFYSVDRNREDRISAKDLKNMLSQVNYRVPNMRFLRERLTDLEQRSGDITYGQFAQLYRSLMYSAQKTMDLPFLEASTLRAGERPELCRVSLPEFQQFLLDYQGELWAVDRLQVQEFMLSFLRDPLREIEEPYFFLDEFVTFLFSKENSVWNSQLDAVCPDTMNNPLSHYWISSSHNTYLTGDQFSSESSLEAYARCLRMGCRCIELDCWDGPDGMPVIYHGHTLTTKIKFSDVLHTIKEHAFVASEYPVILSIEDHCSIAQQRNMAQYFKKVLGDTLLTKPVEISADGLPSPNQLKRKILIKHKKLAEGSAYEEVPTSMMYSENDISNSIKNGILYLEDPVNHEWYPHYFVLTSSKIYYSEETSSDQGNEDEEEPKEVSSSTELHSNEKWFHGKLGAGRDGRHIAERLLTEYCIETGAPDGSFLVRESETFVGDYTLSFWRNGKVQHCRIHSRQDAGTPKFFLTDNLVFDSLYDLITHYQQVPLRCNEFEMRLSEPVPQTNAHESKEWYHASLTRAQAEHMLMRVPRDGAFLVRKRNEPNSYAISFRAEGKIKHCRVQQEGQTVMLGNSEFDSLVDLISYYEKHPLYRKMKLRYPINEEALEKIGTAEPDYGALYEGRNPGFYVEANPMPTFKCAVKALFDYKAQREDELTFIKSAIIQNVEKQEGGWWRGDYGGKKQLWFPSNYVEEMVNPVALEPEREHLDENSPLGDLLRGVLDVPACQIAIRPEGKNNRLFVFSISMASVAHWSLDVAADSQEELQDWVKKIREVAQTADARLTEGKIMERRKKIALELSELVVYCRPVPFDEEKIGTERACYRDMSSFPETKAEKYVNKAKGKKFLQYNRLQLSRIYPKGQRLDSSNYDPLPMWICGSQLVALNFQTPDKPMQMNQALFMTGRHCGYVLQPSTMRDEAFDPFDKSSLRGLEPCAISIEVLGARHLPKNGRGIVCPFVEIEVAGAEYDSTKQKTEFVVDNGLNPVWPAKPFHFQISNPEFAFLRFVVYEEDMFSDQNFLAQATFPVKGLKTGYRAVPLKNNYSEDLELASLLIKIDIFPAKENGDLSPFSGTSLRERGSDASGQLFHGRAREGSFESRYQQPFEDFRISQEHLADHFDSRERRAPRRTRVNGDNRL
Sequence of Genome polyprotein (P29990 2492-3391 limits assumed): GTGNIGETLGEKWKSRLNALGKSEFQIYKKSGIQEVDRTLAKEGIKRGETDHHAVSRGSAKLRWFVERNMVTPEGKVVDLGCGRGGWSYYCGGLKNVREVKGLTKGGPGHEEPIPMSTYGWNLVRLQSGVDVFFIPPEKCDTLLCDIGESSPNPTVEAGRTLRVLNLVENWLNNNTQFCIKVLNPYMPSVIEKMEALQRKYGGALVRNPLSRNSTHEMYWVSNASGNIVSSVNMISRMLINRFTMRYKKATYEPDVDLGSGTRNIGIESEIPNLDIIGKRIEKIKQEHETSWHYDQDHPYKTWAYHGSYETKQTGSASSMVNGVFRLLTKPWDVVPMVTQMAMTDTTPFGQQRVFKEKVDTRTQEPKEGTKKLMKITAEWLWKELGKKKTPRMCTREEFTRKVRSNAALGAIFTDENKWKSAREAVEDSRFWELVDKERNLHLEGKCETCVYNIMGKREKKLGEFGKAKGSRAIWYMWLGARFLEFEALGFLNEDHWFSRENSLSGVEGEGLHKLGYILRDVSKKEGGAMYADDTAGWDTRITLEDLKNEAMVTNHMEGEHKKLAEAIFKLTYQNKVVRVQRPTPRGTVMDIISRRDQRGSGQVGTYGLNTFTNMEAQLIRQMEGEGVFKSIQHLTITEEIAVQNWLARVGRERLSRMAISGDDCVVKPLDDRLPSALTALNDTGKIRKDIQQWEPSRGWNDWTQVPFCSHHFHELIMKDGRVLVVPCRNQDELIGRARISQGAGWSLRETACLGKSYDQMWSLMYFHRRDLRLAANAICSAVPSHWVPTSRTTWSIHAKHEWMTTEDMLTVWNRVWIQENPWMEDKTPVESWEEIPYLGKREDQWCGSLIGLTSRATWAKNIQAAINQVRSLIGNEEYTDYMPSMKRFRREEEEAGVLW

Compound: Cc1cccc(S(=O)(=O)N2CCCCN3[C@H](CO)[C@H](c4ccc(C#CC(C)C)cc4)[C@H]3C2)c1
- AC50 [1]: 28.4 µM (active)
- AC50 [2]: 39.5 µM (active)
- AC50 (Paired box protein Pax-8): 9.99 µM (active)
- AC50 [3]: 9.65 µM (active)
- AC50 [4]: 36.9 µM (active)

Compound: COc1ccc(S(=O)(=O)N(C)C[C@@H]2OCCCC[C@H](C)Oc3ccc(NS(=O)(=O)c4ccc(Cl)cc4)cc3C(=O)N([C@H](C)CO)C[C@@H]2C)cc1
- AC50 (Paired box protein Pax-8): 4.8 µM (active)
- AC50 [3]: 26.9 µM (active)
- AC50 [5]: 58.4 µM (active)

- EC50 (Transthyretin): > 167 µM (inactive)
Compound: Cc1ccc(Nc2c3c(nc4ncnn24)CCC3)cc1

- IC50 [6]: > 122 µM (inactive)
- IC50 (Leucine aminopeptidase): 51.5 µM (active)
- IC50 [7]: 23.7 µM (inactive)
- IC50 (Genome polyprotein): 99.6 µM (active)
Compound: O=Cc1cc(N=Nc2cccc(C(=O)O)c2)ccc1O
- CC50 (Vero [8]): > 40 µM (active)

Compound: O=C(NC1=C(c2ccccc2)C(=O)c2ccccc2C1=O)c1ccccc1
- AC50 [9]: 18.3 µM (active)
- AC50 [10]: 47.5 µM (active)

Compound: Cc1nn(Cc2ccc(Cl)c(Cl)c2)c(C)c1NC(=O)c1cc(-c2ccc3c(c2)OCO3)on1
- AC50 [11]: 0.471 µM (active)
- AC50 [12]: > 70 µM (inactive)
- AC50 [13]: 28.7 µM (active)
- AC50 [14]: 20.6 µM (active)
- AC50 [15]: 20.3 µM (active)
- AC50 [16]: 56 µM (active)

Compound: CSc1ccc(S(=O)(=O)NC2CC3CCC2C3)cc1 (stereo unspecified)
- AC50 (Vero [17]): 16.8 µM (active)

- IC50 [20]: > 69.5 µM (inactive)
Compound: CCOc1cc2c3c(c1)C1(C(=O)N3C(C)(C)C=C2C)C(C#N)=C(N)Oc2cc(O)ccc21 (stereo unspecified)
- CC50 [18]: 11.8 µM (active)
- IC50 [19]: > 69.5 µM (inactive)
